One block for each molecule: values may come before it.
What was measured:
[1] = tested on: mEpoR; experiment: EPO-induced proliferation (growth inhibition) of BaF3/mEpoR cells expressing TM proteins; type: cell-based, mouse; conditions: 0.06 U ml^−1 EPO, IL-3-free, 6-8 days; versus empty vector
Procedure: Mouse IL-3-dependent BaF3 and derivative cells were maintained in RPMI-10 medium: RPMI-1640 supplemented with 10% heat-inactivated FBS, 5% WEHI-3B cell-conditioned medium (as the source of IL-3), 4 mM L-glutamine, 0.06 mM β-mercaptoethanol and 1⨯ P-S. BaF3 cells expressing mEpoR, hEpoR and all EpoR mutants and chimeras were generated by infecting BaF3 cells with pMSCV-neo vector containing the desired HA-tagged EpoR gene. BaF3 cells (5 ⨯ 10^5) were washed with PBS and then resuspended in 500 μl of RPMI-10 medium with 4 μg ml^−1 polybrene. […]
For proliferation assays, 2 ⨯ 10^5 BaF3 and derivative cells expressing the appropriate genes were washed in PBS three times to remove IL-3. […] Viable cells were counted 6−8 days after IL-3 removal. […] The statistical significance of differences between control and experimental samples was evaluated by either one-tailed or two-tailed Student’s t-tests with unequal variance, performed using the T.TEST function in Microsoft Excel (2013).
For proliferation assays, BaF3/mEpoR/tTA cells expressing CHAMP proteins were first cultured in 10 ml of RPMI-10/IL-3 medium in the absence of Dox or supplemented with 100 or 200 pg ml^−1 Dox for 48 h. Then, 2 ⨯ 10^5 BaF3 cells were washed in PBS, resuspended in IL-3-free medium supplemented with the same concentration of Dox and 0.06 U ml^−1 human EPO, and counted as described above.

[2] = tested on: mEpoR−GFP1-10; experiment: Split GFP complementation with mEpoR−GFP1-10; type: cell-based, mouse; conditions: flow cytometry, BaF3 cells
[3] = tested on: ErbB2−GFP1-10; experiment: Split GFP complementation with ErbB2−GFP1-10; type: cell-based; conditions: flow cytometry, BaF3 (tTa) cells, 1 pM doxycycline
[4] = target: mEpoR-TM2 (isotope-labeled mEpoR TM domain fragment) (mouse); experiment: SDS-PAGE; mEpoR TM peptide on SDS-PAGE, non-covalent monomer and dimer bands
[5] = tested on: mEpoR TM domain; conditions: parallel self-interaction; ref [25]–[28]; cited from earlier work
Text: EpoR is a prototypical cytokine receptor whose TM domain contributes to both receptor homodimerization[25]–[27] and conformational coupling upon ligand binding[28],[29], activating the Janus kinase (JAK)−signal transducer and activator of transcription (STAT) pathway. […] In model membranes, designed TM peptides hosting SXXLXXX sequence repeats spontaneously homodimerize, strongly favoring parallel TM helix geometry like that of ...

[6] = target: GFP11−CHAMP-1 (Flag tag, GFP11, GGG linker, CHAMP-1); experiment: split reporter (BiFC, NanoBiT); split GFP complementation in BaF3 cells co-expressing a GFP1-10 fusion and a GFP11 fusion; mean fluorescence intensity by flow cytometry

Molecule: MDHLGASLWPQVGSLCLLLAGAAWAPPLDPLILTLSLILVLISLLLTVLALLSHRRALKQKIWPGIPSPESEGPYSNPYENSLIPAAEPLPPSYVACS [mEpoR TM domain mimic protein, type I mEpoR TM domain mimic protein expressed in BaF3 cells]
inhibition of EPO-induced proliferation (in words) [1]: did not show inhibited proliferation

Molecule: MDHLGASLWPQVGSLCLLLAGAAWERVQLAHHFSEPEITLIIFGVMAGVIGTILLISYGIRRLIGGSGGGGSGGRDHMVLHEYVNAAGIT [glycophorin A, GlycophorinA TM domain construct fused at its c-terminus to GFP11]
fluorescence in mEpoR−GFP1-10 expressing cells (in words) [2]: fluorescence was not increased

Molecule: MDHLGASLWPQVGSLCLLLAGAAWPVTFIIATVVGVLLFLILVVVVGILGGSGGGGSGGRDHMVLHEYVNAAGIT [ErbB2 TM domain fusion, ErbB2 TM domain construct fused to GFP11 at its c-terminus]
fluorescence in mEpoR−GFP1-10 expressing cells (in words) [2]: fluorescence was not increased
complementation of ErbB2−GFP1-10 [3]: could complement ErbB2−GFP1-10

Molecule: MRLPGAMPALALKGELLLLSLLLLLEPQISQGLVVTPKVVVISAILALVVLTIISLIILIMLWQKKPRYEIRWKVIESVSCPAPRAEAEDSFL [PDGFβR, unrelated platelet-derived growth factor β receptor TM domain protein construct]
inhibition of EPO-induced proliferation (in words) [1]: did not show inhibited proliferation

stoichiometry N [4]: 2
Molecule: mEpoR-TM2 (isotope-labeled mEpoR TM domain fragment) (peptide)

B1: mEpoR: mouse erythropoietin receptor (target); TM domain (protein)
chain: APSPSLPDPKFESKAALLASRGSEELLCFTQRLEDLVCFWEEAASSGMDFNYSFSYQLEGESRKSCSLHQAPTVRGSVRFWCSLPTADTSSFVPLELQVTEASGSPRYHRIIHINEVVLLDAPAGLLARRAEEGSHVVLRWLPPPGAPMTTHIRYEVDVSAGNRAGGTQRVEVLEGRTECVLSNLRGGTRYTFAVRARMAEPSFSGFWSAWSEPASLLTASDLDPLILTLSLILVLISLLLTVLALLSHRRTLQQKIWPGIPSPESEFEGLFTTHKGNFQLWLLQRDGCLWWSPGSSFPEDPPAHLEVLSEPRWAVTQAGDPGADDEGPLLEPVGSEHAQDTYLVLDKWLLPRTPCSENLSGPGGSVDPVTMDEASETSSCPSDLASKPRPEGTSPSSFEYTILDPSSQLLCPRALPPELPPTPPHLKYLYLVVSDSGISTDYSSGGSQGVHGDSSDGPYSHPYENSLVPDSEPLHPGYVACS
modifications: left off: HA, end not stated, kept
notes: mouse erythropoietin receptor (target); TM domain
homodimerization of mEpoR TM domains [5]: only weakly homodimerize

fold MFI over cells expressing mEpoR−GFP1-10 alone or the CHAMP-1 fusion alone [6]: > 4 fold
B2: mEpoR−GFP1-10 fusion protein (domain or fragment)
chain: APSPSLPDPKFESKAALLASRGSEELLCFTQRLEDLVCFWEEAASSGMDFNYSFSYQLEGESRKSCSLHQAPTVRGSVRFWCSLPTADTSSFVPLELQVTEASGSPRYHRIIHINEVVLLDAPAGLLARRAEEGSHVVLRWLPPPGAPMTTHIRYEVDVSAGNRAGGTQRVEVLEGRTECVLSNLRGGTRYTFAVRARMAEPSFSGFWSAWSEPASLLTASDLDPLILTLSLI

From article PMC11142920, “De novo-designed transmembrane proteins bind and regulate a cytokine receptor” (Nature Chemical Biology, 2024)
